Laboratory results published in article PMC10924921, “Mi-2β promotes immune evasion in melanoma by activating EZH2 methylation” (Nature Communications, 2024).

Key:
Test in all cases: biochemical
Set-up in all cases: KINOMEscan active-site competition binding panel (468 kinase assays), per cent of control at 1000 nM
Conditions in all cases: KINOMEscan per cent of control (binding competition); read-out: Percent Control
[1] = target: T1, RSK4(Kin.Dom.1-N-terminal) (Homo sapiens, UniProt Q9UK32)
T1 construct: gene RPS6KA6; Kin.Dom.1-N-terminal
Description: (§1) Figure S7 / Percent Control

[2] = target: T2, ERK2 (Homo sapiens, UniProt P28482)
T2 construct: gene MAPK1
Description: as §1

[3] = target: EGFR(L858R,T790M) (Homo sapiens, UniProt P00533, L858R/T790M)
Description: as §1

[4] = target: LATS2 (Homo sapiens, UniProt Q9NRM7)
Description: as §1

[5] = target: CLK4 (Homo sapiens, UniProt Q9HAZ1)
Description: as §1

[6] = target: HIPK3 (Homo sapiens, UniProt Q9H422)
Description: as §1

[7] = target: MAP4K3 (Homo sapiens, UniProt Q8IVH8)
Description: as §1

[8] = target: AKT2 (Homo sapiens, UniProt P31751)
Description: as §1

[9] = target: MAPKAPK5 (Homo sapiens, UniProt Q8IW41)
Description: as §1

[10] = target: PRKG2 (Homo sapiens, UniProt Q13237)
Description: as §1

[11] = target: FYN (Homo sapiens, UniProt P06241)
Description: as §1

[12] = target: T3, JNK1 (Homo sapiens, UniProt P45983)
T3 construct: gene MAPK8
Description: as §1

[13] = target: T4, ABL1(F317I)-nonphosphorylated (Homo sapiens, UniProt P00519, F317I)
T4 construct: nonphosphorylated
Description: as §1

[14] = target: T5, TAK1 (Homo sapiens, UniProt O43318)
T5 construct: gene MAP3K7
Description: as §1

[15] = target: T6, SIK (Homo sapiens, UniProt P57059)
T6 construct: gene SIK1
Description: as §1

[16] = target: T7, MEK5 (Homo sapiens, UniProt Q13163)
T7 construct: gene MAP2K5
Description: as §1

[17] = target: CDK7 (Homo sapiens, UniProt P50613)
Description: as §1

[18] = target: T8, RPS6KA4(Kin.Dom.2-C-terminal) (Homo sapiens, UniProt O75676)
T8 construct: Kin.Dom.2-C-terminal
Description: as §1

[19] = target: T9, AMPK-alpha1 (Homo sapiens, UniProt Q13131)
T9 construct: gene PRKAA1
Description: as §1

[20] = target: T10, TIE2 (Homo sapiens, UniProt Q02763)
T10 construct: gene TEK
Description: as §1

[21] = target: T11, MEK6 (Homo sapiens, UniProt P52564)
T11 construct: gene MAP2K6
Description: as §1

[22] = target: PIM1 (Homo sapiens, UniProt P11309)
Description: as §1

[23] = target: T12, ABL1(T315I)-phosphorylated (Homo sapiens, UniProt P00519, T315I)
T12 construct: phosphorylated
Description: as §1

[24] = target: FGFR3(G697C) (Homo sapiens, UniProt P22607, G697C)
Description: as §1

Chain of AKT2 (P31751 whole entry): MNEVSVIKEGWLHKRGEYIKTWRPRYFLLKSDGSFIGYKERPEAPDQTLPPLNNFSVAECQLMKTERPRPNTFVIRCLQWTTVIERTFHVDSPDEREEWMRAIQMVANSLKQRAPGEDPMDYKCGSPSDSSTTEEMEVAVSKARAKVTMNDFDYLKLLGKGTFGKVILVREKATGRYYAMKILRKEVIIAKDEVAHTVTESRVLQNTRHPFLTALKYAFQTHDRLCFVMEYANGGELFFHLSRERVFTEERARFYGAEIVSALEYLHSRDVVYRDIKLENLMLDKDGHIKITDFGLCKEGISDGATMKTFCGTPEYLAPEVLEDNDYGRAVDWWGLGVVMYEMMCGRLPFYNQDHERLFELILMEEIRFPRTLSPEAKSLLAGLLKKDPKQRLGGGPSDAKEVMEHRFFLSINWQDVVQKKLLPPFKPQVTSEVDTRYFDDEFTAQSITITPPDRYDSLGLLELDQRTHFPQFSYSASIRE
T11 sequence (P52564 whole entry): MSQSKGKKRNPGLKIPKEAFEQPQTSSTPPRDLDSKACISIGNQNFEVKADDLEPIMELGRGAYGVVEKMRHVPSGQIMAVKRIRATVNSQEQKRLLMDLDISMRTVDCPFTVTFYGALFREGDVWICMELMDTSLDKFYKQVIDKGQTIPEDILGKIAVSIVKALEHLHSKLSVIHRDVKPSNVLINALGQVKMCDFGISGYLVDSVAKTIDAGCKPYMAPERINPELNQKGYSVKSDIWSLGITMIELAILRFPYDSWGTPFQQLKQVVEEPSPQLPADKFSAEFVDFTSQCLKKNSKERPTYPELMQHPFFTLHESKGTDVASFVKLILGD
Chain of CLK4 (Q9HAZ1 whole entry): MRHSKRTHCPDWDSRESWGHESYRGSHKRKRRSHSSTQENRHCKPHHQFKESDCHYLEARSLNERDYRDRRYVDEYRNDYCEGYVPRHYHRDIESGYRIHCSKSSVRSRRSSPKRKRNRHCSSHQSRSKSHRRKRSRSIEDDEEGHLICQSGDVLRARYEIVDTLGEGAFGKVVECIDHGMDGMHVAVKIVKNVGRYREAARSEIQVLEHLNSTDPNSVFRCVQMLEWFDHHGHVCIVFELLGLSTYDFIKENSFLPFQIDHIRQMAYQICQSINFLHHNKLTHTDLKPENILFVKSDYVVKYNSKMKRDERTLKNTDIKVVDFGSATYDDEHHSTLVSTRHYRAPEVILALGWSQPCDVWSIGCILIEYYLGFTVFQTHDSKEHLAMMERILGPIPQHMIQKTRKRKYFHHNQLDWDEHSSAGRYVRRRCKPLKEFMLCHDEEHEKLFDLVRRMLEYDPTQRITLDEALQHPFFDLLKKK
T1 sequence (Q9UK32 whole entry): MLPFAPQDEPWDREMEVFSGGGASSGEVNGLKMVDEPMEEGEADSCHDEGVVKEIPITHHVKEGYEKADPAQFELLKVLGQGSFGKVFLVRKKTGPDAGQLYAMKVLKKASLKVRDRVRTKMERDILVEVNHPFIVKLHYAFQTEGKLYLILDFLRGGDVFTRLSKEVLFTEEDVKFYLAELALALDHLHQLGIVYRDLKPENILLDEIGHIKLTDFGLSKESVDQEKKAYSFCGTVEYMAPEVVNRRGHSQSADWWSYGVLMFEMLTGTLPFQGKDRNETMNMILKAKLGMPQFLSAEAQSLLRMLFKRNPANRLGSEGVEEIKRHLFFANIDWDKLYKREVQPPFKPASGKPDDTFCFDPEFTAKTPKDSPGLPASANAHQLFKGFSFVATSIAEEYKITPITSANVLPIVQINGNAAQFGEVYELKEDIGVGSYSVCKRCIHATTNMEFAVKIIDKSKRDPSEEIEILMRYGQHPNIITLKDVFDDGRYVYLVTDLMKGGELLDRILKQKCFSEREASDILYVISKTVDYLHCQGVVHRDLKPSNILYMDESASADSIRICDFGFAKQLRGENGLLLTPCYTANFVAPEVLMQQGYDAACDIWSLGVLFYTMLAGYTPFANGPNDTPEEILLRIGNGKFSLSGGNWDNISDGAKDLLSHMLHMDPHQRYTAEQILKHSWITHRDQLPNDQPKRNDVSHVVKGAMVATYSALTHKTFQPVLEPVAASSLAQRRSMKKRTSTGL
Chain of CDK7 (P50613 whole entry): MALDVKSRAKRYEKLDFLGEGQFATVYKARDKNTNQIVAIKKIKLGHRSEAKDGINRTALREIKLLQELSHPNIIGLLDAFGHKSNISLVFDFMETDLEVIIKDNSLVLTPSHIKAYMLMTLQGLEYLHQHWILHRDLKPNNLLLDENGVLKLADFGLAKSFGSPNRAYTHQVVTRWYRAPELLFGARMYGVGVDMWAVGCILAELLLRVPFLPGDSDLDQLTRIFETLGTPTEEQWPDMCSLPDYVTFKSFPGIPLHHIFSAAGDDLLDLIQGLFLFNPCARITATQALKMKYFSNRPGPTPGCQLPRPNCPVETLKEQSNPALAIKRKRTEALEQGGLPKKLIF
Chain of PIM1 (P11309 whole entry): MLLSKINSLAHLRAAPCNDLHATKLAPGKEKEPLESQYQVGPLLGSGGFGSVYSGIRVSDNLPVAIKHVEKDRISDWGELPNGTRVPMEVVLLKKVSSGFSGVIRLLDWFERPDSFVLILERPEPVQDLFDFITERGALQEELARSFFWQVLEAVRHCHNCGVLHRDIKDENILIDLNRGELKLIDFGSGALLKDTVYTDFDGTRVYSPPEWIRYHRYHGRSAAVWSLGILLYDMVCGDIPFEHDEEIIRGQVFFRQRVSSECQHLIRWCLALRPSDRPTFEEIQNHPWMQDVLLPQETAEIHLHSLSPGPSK
T9 sequence (Q13131 whole entry): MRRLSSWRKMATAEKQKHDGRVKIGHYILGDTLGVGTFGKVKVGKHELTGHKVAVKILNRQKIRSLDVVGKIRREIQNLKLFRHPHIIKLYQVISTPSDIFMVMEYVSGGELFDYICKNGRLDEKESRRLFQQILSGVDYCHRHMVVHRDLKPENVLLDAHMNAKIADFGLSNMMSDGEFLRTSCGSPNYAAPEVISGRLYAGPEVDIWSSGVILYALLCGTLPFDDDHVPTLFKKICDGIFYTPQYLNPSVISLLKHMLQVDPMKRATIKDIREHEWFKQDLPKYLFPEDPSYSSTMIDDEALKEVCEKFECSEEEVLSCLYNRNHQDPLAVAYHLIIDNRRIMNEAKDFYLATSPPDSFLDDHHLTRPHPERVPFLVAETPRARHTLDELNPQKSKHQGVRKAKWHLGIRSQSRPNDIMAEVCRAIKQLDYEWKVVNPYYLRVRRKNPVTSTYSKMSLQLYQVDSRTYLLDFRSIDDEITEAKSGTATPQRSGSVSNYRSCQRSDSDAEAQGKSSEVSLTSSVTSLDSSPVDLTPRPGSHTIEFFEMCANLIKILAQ
T6 sequence (P57059 whole entry): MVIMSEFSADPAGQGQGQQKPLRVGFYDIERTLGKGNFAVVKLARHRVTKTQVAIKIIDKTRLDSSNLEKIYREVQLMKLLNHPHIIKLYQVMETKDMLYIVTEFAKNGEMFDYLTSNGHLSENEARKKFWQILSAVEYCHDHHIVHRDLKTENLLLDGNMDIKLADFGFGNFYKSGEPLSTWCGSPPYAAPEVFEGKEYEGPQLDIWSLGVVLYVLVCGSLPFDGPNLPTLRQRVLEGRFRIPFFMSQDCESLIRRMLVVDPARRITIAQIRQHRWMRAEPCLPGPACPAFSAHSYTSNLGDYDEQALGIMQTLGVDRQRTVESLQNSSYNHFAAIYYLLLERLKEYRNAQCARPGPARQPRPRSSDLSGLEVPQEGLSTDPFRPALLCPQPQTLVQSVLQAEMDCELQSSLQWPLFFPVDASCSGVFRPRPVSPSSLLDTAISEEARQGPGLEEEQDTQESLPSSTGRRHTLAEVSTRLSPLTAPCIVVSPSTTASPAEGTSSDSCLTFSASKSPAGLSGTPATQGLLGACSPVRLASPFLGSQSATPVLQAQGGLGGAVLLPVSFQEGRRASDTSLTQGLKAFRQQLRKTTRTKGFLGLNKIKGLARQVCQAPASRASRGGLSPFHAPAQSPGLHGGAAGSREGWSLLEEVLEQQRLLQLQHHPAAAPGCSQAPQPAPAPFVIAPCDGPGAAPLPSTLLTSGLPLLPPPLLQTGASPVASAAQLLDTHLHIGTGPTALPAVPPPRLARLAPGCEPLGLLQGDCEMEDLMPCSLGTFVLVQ
T5 sequence (O43318 whole entry): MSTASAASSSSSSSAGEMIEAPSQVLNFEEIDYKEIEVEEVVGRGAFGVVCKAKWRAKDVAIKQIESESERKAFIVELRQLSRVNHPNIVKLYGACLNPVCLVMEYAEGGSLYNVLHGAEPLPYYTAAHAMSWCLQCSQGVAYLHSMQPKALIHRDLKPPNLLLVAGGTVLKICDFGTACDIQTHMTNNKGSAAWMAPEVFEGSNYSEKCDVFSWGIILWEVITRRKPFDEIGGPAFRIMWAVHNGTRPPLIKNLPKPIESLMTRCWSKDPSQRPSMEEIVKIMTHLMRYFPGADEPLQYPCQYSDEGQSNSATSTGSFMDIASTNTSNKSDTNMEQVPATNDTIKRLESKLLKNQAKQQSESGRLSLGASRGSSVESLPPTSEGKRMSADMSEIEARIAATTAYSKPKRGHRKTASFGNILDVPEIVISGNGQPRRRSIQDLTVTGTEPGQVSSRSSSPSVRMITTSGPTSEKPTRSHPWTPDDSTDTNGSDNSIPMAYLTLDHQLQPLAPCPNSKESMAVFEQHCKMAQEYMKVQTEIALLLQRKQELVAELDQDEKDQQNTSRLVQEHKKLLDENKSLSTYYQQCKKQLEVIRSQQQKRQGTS

`Cn1c(=O)[nH]c2ccc(-c3cccc(C(=O)NC4CCn5ccnc5C4)c3)cc21` (stereo not drawn) [Z36-MP5] gave a remaining binding at 1 µM [1] of 36%, a remaining binding at 1 µM [2] of 81% and a remaining binding at 1 µM [3] of 39%. The remaining binding at 1 µM [4] was 95%, the remaining binding at 1 µM [5] was 69% and the remaining binding at 1 µM [6] was 61%. It also gave a remaining binding at 1 µM [7] of 51%, a remaining binding at 1 µM [8] of 89% and a remaining binding at 1 µM [9] of 63%. The remaining binding at 1 µM [10] was 88%, the remaining binding at 1 µM [11] was 100% and the remaining binding at 1 µM [12] was 61%. The remaining binding at 1 µM [13] was 85%, the remaining binding at 1 µM [14] was 84% and the remaining binding at 1 µM [15] was 81%. The remaining binding at 1 µM [16] was 60%, the remaining binding at 1 µM [17] was 42% and the remaining binding at 1 µM [18] was 59%. For the same molecule, the remaining binding at 1 µM [19] was 92%, the remaining binding at 1 µM [20] was 58% and the remaining binding at 1 µM [21] was 99%. It also gave a remaining binding at 1 µM [22] of 90%, a remaining binding at 1 µM [23] of 49% and a remaining binding at 1 µM [24] of 49%.
